For this experiment, the system named is HIV-1 Lai (subtype B, X4). As to the kind of experiment: In vitro testing of antiviral activity in the HeLa-P4 assay (β-Galactosidase reporter, luminescence). The format is cell-based. Here is the method: • Viruses: HIV-1 Lai (subtype B, X4); titer: 8 x 10^4/ml; 20 µl/batch • Cells: HeLa-P4; 2.5 x 10^4/batch
HeLa-P4 cells (from NIH AIDS Research and Reference Program) are a cell line, which was transfected with genes for the human CD4- and […] receptor and which are therefore infectable with HIV-1 (the CXCR4-receptor is expressed on the cells). For quantification of the HIV infection, the cells carry a reporter gene, i.e. β-Galactosidase gen, which is under control of the HIV-1 promoter. After infection, the Tat-protein of HIV-1 transactivates the reporter gene and the degree of infection can be quantified by measurement of the enzyme activity in the lysate of the cells. An inhibition of HIV-1 infection results in a reduction of the β-Galactosidase activity with respect to the infection with viruses without substance addition. The background is defined by measuring the enzyme activity in cells, to which no virus was added. Since in principle a lower infection may also be based on toxic effects of the substances to the cells, in addition to said assay a cytotoxicity assay is also carried out.
The test substances are prepared by adding 1 mg of each extract/concentrate in an Eppendorf vial and dissolving the sample in 1 ml of RPMI medium. The solution is filtered under sterile conditions and placed in a new Eppendorf vial. As a positive control, the T20-peptide (a known HIV-1 entry inhibitor; Enfuvirtide) is used. Dilution series of the test compounds alone, combinations thereof as well as of T20 in cell culture medium were prepared, wherein the samples have concentrations of 5, 10, 25, and 50 µg/ml for Marrubium vulgare, Cistus incanus and Ribes nigrum and combinations of extracts of Marrubium vulgare and Cistus incanus, and Marrubium vulgare and Ribes nigrum. For Marrubium vulgare, Borago officinalis and combinations of extracts of Marrubium vulgare and Borago officinalis concentrations of 5 and 50 µg/ml were tested. The given concentrations in the combinations relate to the concentration of each single extract, e.g. a concentration of 5 µg/ml means 5 µg/ml of Marrubium vulgare and 5 µg/ml of the extract of the other plant (Cistus incanus, Ribes nigrum, Borago officinalis).
The positive control T20 is used in concentrations of 100 and 200 nM. Each of the substance concentrations was tested in triplicates.
Day 1: Each of the substance dilutions of Marrubium vulgare (5, 10, 25, 50, […]), Ribes nigrum (5, 10, 25, and 50 µg/ml), Cistus incanus (5, 10, 25, and 50 µg/ml) and Borago officinalis (5 and 50 µg/m) is mixed with 20 µl of the HIV-1 Lai virus stock (titer 8x10^4/ml), vortexed, and pre-incubated at 37 °C for 30 minutes. The virus/substance mixture is added to 2.5 x 10^4 HeLa-P4 cells corresponding to an m.o.i. of 0.06, vortexed and incubated for 2 h at 37 °C. Afterwards the supernatant is removed, the cells are washed with medium and 100 µl of fresh medium is added. The cells are incubated for 2 days at 37 °C.
Accordingly, each of the substance dilutions of combinations of Marrubium vulgare and Ribes nigrum (5, 10, 25, and 50 µg/ml), Marrubium vulgare and Cistus incanus (5, 10, 25, and 50 µg/ml) and Marrubium vulgare and Borago officinalis (5 and 50 µg/ml) is mixed with 20 µl of the HIV-1 Lai virus stock (titer 8x10^4/ml), vortexed, and pre-incubated at 37 °C for 30 minutes. The virus/substance mixture is added to 2.5 x 10^4 HeLa-P4 cells, vortexed and incubated for 2 h at 37 °C. Afterwards the supernatant is removed, the cells are washed with medium and 100 µl of fresh medium is added. The cells are incubated for 2 days at 37 °C.
Day 3: The supernatant is removed, the cells are washed with 100 µl of medium and lysed in 50 µl of lysis buffer per each well (2.5 ml glycerol; 1.25 ml MES-Tris, 25 µl 1 M DTT, 250 µl Triton X100, H2O ad 25 ml) for 10 minutes on ice and removed at -80 °C. […]

Turning to Enfuvirtide [T20], where the note is “100 nM”, the “LU (luminescence units) Average” value turned out to be 16893 LU, the “LU (luminescence units) Trial 1” value worked out at 23855 LU, the “LU (luminescence units) Trial 2” value turned out to be 13888 LU and the “LU (luminescence units) Trial 3” value is 12937 LU. For the same substance, where the note is “200 nM”, the “LU (luminescence units) Average” value is 8802 LU, the “LU (luminescence units) Trial 1” value stood at 9407 LU, the “LU (luminescence units) Trial 2” value stood at 7531 LU and the “LU (luminescence units) Trial 3” value is given as 9468 LU.

For the origin of these results see patent EP2846814B1, “COMPOSITION FOR THE PREVENTION AND TREATMENT OF VIRAL INFECTIONS CAUSED BY RETROVIRUSES” (Pandalis, Georgios, priority 2012, dated 2013).
